Entries after “also recorded” stand apart in the source; their conditions may differ.
Columns and labels:
[1] = test system: HDAC5/14-3-3β association; assay: Immunoprecipitation of 14-3-3β and detection of bound HDAC5 in cardiomyocytes; assay type: cell-based, rat; settings: AdUIIR-infected cardiomyocytes; inhibitor 1 h prior to UII, 60 min
Description: (§1) Cell Culture and Treatments. […] Plasmids and Adenoviral Constructs.
For immunoprecipitation studies, Cardiomyocytes were cultured in 100-mm as described in the previous section. 24 h post-plating, cells were treated with UII and various pharmacological inhibitors as indictated. Following treatment, 14-3-3β was immunoprecipitated from whole cell lysate using a commercially available antibody (Abcam) and a protein G immunoprecipitation kit (IP50 Kit, Sigma, following manufacturer's protocol). HDAC5 was detected using a commercially-available antibody (Cell Signaling Technologies, Inc.).
UII stimulation induces association of HDAC5 with 14-3-3β in a CaMKK dependent manner. The activity of MEF2 is controlled, in part, by its association with class II HDACs in the nucleus. Class II HDACs repress the activity of MEF2-sensitive promoters by local deacetylation of nucleosomal histones causing the condensation of chromatin. The repressive influence of HDACs on MEF2 can be relieved by CaMK-dependent phosphorylation of HDACs, which results in their dissociation from MEF2. The dissociation of HDACs from MEF2 is accompanied by 14-3-3-mediated nuclear export of the HDACs. We have shown that UII stimulates the activity of MEF2. Next, to determine whether UII stimulates HDAC5 association with 14-3-3β, AdUIIR-infected cardiomyocytes were treated with UII for various times up to 60 min, and 14-3-3β was pulled down from the whole cell lysate by using an antibody specific for 14-3-3β and protein G agarose. HDAC5 was detected using a specific antibody.

[2] = test system: ANF, SkA and MEF2 reporters; assay: UII-stimulated ANF, SkA and MEF2 luciferase reporter assay in cardiomyocytes; assay type: cell-based, rat; settings: AdUIIR-infected cardiomyocytes; inhibitor 1 h prior to UII 100 nM; STO-609 250 ng/mL, SB203580 10 μM, U0126 10 μM, AKTi 5 μM
Source text: as §1
Transient Transfection and Luciferase Assay.

[3] = test system: ANF, SkA and MEF2 reporters; settings: cardiomyocytes co-transfected with CaMKI; SB203580 10 μM or U0126 10 μM
Description: Cell Culture and Treatments. Cardiomyocytes were isolated from 2-4 day old Sprague-Dawley rats using the neonatal cardiomyocyte isolation system (Worthington Biolabs) based on a previously described protocol (45). Cells were plated in medium 199 supplemented with 10% fetal bovine serum (FBS, Atlanta Biologicals) and gentamycin (Fisher). Cells were maintained in medium 199 supplemented with 1.0% FBS and gentamycin. Prior to any treatment, cardiomyocyte cultures were incubated in medium 199 containing 0.2% serum for 24 hours. […] Cells were incubated in medium 199 containing 0.2% FBS prior to stimulation with the indicated reagents for reporter assays, RT-PCR, western blotting and immunoprecipitation.
Transient Transfection and Luciferase Assay. For transfections, cardiomyocytes were cultured in 12-well tissue culture plates as described. Once cultures were incubated in medium 199 with 0.2% serum for 24 hours, cultures were either infected with AdUIIR as described or were just transfected. […] Cardiomyocyte cultures were harvested 24-72 hours post treatment (per sample) and luciferase activity was determined by luminometry (Model TD 20/20 Luminometer, Turner Designs, Sunnyvale, Calif.) using a commercially available kit (Luciferase Substrate, Promega, Madison, Wis.).

p38 and ERK1/2 = assay: Western blot of p38 and ERK1/2 phosphorylation in cardiomyocytes; assay type: cell-based, rat; settings: AdUIIR-infected cardiomyocytes; UII with STO-609 for 5 min
Description: as §1
(§2) Western Blot Analysis and Immunoprecipitations. Cardiomyocytes were cultured in 100-mm dishes as described in the previous section. 24 h post-plating, cells were treated with UII and various pharmacological inhibitors as indicated. Following treatment, cells were lysed, and the relative abundance of UIIR, active p38 and ERK1/2, and active PKD was determined with commercially-available antibodies (Alpha Diagnostic, and Cell Signaling Technologies, Inc., respectively). The antibody for CaMKI was obtained from T. Soderling (Vollum Institute, Oregon Health Sciences University, Portland Oreg.).
UII-dependent activation of p38 and ERK1/2 requires CaMKK. MAP kinases play an important role in mediating intracellular signaling. They are involved in cellular processes such as hypertrophy (7-10, 53, 54). More interesting, cross talk has been reported between the CaMKs and the MAPKs in neurons (11). There are three distinct families of MAP kinases (ERKs, p38s, and JNKs)(55). […] Next, whether UII stimulation of the MAP kinases was dependent on CaMKK was determined. AdUIIR-infected cardiomyocyte cultures were treated with UII for various times up to 60 min, and the phosphorylation status of p38 and ERK MAPKs were measured by Western blot analysis using antibodies that detect the active (phosphorylated) forms of these kinases.

p42 MAP kinase = p42 MAP kinase (Homo sapiens, UniProt P28482); settings: cited from earlier work
Sequence of p42 MAP kinase (P28482 whole entry): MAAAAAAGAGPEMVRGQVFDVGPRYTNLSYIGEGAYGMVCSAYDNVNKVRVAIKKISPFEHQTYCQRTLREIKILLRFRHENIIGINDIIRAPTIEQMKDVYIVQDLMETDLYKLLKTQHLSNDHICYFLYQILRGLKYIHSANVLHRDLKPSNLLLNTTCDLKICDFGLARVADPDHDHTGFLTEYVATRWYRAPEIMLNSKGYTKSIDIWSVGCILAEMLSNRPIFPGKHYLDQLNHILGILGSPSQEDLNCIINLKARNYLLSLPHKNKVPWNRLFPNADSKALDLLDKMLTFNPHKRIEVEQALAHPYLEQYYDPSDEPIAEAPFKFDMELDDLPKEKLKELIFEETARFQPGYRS

PKC = settings: cited from earlier work
CaM-KIV = target: T1, CaM-KIV (Homo sapiens, UniProt Q16566); settings: cited from earlier work
T1 sequence (Q16566 1-473): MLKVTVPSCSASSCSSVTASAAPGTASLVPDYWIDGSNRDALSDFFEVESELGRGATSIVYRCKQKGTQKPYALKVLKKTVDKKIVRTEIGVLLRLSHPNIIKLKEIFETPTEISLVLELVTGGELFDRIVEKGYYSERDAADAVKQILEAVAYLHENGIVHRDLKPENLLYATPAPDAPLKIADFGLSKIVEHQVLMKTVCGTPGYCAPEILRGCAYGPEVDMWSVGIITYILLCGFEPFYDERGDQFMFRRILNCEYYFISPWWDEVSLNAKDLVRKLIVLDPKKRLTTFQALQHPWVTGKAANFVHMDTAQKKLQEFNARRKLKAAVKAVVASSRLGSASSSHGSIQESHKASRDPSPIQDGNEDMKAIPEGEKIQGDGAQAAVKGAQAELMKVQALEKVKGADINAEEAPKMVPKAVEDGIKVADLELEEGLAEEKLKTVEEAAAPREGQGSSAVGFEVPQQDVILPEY

PKD [4] = assay: Western blot of AngII or Et-1 stimulated PKD phosphorylation in cardiomyocytes; assay type: cell-based, rat; settings: AngII 100 nM or Et-1 10 nM for 10 min; STO-609 250 ng/mL
Description: (§3) Whole cell lysates were subjected to Western blotting to determine the relative change in phosphorylation of ERK1/2 (FIG. 7A) or PKD (FIG. 7B). Western Blot Analysis and Immunoprecipitations. […] Following treatment, cells were lysed, and the relative abundance of UIIR, active p38 and ERK1/2, and active PKD was determined with commercially-available antibodies (Alpha Diagnostic, and Cell Signaling Technologies, Inc., respectively). The antibody for CaMKI was obtained from T. Soderling (Vollum Institute, Oregon Health Sciences University, Portland Oreg.).

CaM-KI = CaM-KI (Homo sapiens, UniProt Q14012); settings: cited from earlier work
Sequence of CaM-KI (Q14012 whole entry, species assumed): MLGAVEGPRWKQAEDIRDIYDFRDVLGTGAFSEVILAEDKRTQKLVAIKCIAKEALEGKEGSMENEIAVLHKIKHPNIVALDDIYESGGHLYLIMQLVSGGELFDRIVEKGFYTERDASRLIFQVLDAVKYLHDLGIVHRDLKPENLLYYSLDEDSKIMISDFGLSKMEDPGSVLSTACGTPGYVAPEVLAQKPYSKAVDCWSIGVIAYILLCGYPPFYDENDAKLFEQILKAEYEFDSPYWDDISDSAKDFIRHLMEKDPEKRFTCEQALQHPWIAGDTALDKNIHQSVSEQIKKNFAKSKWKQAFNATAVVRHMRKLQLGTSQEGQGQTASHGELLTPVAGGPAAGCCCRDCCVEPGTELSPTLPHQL

ERK1/2 = assay: Western blot of AngII or Et-1 stimulated ERK1/2 phosphorylation in cardiomyocytes; assay type: cell-based, rat; settings: AngII 100 nM or Et-1 10 nM for 10 min; STO-609 250 ng/mL
Description: as §3

[5] = test system: ANF, BNP, αMHC and SkA mRNA; assay: Semi-quantitative RT-PCR of hypertrophy marker genes in cardiomyocytes; assay type: cell-based, rat; settings: AdUIIR-infected cardiomyocytes; UII 100 nM, STO-609 250 ng/mL, 48 h
Description: as §1
Reverse Transcription and Semi-quantitative PCR—Cardiomyocytes were cultured in 100-mm dishes at a density of 1×10^5 cells/cm^2. 24 h post-plating, cells were treated as indicated. Following treatment, total RNA was isolated with TRIzol® reagent (Invitrogen) cDNA was synthesized using Super-Script™III (Invitrogen) per the manufacturer's instructions. Semi-quantitative PCR was then performed using gene-specific primers for UIIR, hypertrophy marker genes and glyceraldehyde-3-phosphate dehydrogenase (GAPDH) (Integrated DNA Technologies). Sequences of gene-specific primers were as follows: for UIIR, sense 5′-[…]-3′ (SEQ ID NO: 1) and antisense 5′-[…]-3′ (SEQ ID NO: 2); for ANF, sense 5′-[…]-3′ (SEQ ID NO: 3) and antisense 5′-[…]-3′ (SEQ ID NO: 4); for BNP sense, 5′-[…]-3′ (SEQ ID NO: 5) and anti-sense 5′-[…]-3′ (SEQ ID NO: 6); for αMHC sense, 5′-[…]-3′ (SEQ ID NO: 7) and antisense 5′-[…]-3′ (SEQ ID NO: 8); for SkA sense, 5′-[…]-3′ (SEQ ID NO: 9) and antisense 5′-[…]-3′ (SEQ ID NO: 10); and for GAPDH sense, 5′-[…]-3′ (SEQ ID NO: 11) and antisense 5′-[…]-3′ (SEQ ID NO: 12).

PKA = settings: cited from earlier work
CaMKKa = CaMKKa (Rattus norvegicus, UniProt P97756); settings: cited from earlier work
Sequence of CaMKKa (P97756 whole entry): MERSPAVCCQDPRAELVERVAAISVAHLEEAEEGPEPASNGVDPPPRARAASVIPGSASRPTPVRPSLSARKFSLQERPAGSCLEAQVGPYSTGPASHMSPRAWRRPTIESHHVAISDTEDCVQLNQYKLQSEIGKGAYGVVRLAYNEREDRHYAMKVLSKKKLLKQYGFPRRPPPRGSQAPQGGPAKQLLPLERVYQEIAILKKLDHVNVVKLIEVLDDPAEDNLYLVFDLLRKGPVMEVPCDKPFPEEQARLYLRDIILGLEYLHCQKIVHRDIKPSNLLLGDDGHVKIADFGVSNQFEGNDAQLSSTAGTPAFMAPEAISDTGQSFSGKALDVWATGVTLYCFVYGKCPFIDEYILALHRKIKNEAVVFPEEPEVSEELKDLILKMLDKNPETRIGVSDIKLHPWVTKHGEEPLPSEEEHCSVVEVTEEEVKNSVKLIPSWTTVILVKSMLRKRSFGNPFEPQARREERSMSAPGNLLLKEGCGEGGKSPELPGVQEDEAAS

PKD [6] = assay: Western blot of PKD phosphorylation (phospho-Ser744/748) in cardiomyocytes; assay type: cell-based, rat; settings: AdUIIR-infected cardiomyocytes; UII with STO-609 for 2 or 5 min
Description: as §1, §2
UII activates PKD in a CaMKK dependent manner. A parallel pathway involving PKD phosphorylatea HDACs resulting in their 14-3-3-dependent translocation […] (19). […] Next, it was determined whether UII stimulation could activate PKD which would account for the UII-induced HDAC5 translocation […] possibly working in conjunction with CaMKI. To determine whether UII activates PKD, AdUIIR-infected cardiomyocyte cultures were treated with UII for various times up to 60 min, and whole cell lysates were collected and the phosphorylation status of PKD was measured by Western blot analysis by using an antibody that recognizes the active form of PKD (phospho-Ser744/748). […]

CaMKI = assay: Western blot of CaMKI phosphorylation (phospho-Thr178) in cardiomyocytes; assay type: cell-based, rat; settings: AdUIIR-infected cardiomyocytes; UII with STO-609 for 2 or 5 min
Description: as §1, §2
UII stimulation results in the activation of CaMKI. […] One of the major downstream effectors of CaMKK is CaMKI. In addition to calcium/calmodulin, CaMKI requires phosphorylation by CaMKK to be active. To determine whether UII activates CaMKI, AdUIIR-infected cardiomyocyte cultures were treated with UII for various times up to 60 min, and whole cell lysates were collected and the phosphorylation status of CaMKI was measured by Western blot analysis by using an antibody that recognizes the active form of CaMKI (phospho-Thr178). […] CaMKI remained phosphorylated and active through 60 min of UII stimulation. Thus, UII activates CaMKI in cardiomyocytes.

UIIR = UIIR expression in cardiomyocytes treated with hypertrophic agonists (RT-PCR, western blot); assay type: cell-based, rat; settings: for UIIR mRNA expression: 10 μM PE or 100 nM AngII for 24 hours, RT-PCR; for UIIR protein expression: PE or AngII, western blot
Description: Cardiomyocytes were cultured in medium containing 0.2% FBS and either PE (10 μM) or AngII (100 nM) for 48 hours. Total RNA was isolated and reverse transcribed. cDNA was used as template to amplify UIIR. […] Cardiomyocytes were cultured in medium containing 0.2% FBS and either PE (10 μM) or AngII (100 nM) for 48 hours. Total protein was isolated and UIIR detected by western blot.
Expression of UIIR in myocytes treated with hypertrophic agonists. In order to validate the array data, we designed PCR primers to amplify UIIR. Cardiomyocyte cultures were treated with 10 μM PE or 100 nM AngII for 24 hours and total RNA was extracted following the Trizol protocol (Invitrogen). Total RNA was then used for template for reverse transcription. The cDNA generated from the RT reaction was then used as template to amplify UIIR and GAPDH as control.
To this end, we stimulated cardiomyocyte cultures with AngII and PE as before and isolated total protein. The total protein was resolved by PAGE (12% acrylamide), transferred to nitrocellulose, and blotted for UIIR using a specific antibody.

N#CC(=C(/N)Sc1ccccc1N)/C(C#N)=C(\N)Sc1ccccc1N [U0126]
effect of inhibitor on UII-induced association of HDAC5 with 14-3-3β [1]: loss of UII-induced association of HDAC5 with 14-3-3β; also recorded: reduced UII-dependent association with 14-3-3β | effect of inhibitor on UII activation of ANF, SkA and MEF2 reporter luciferase activity [2]: completely blocked | effect of inhibitor on CaMKI activation of ANF, SkA and MEF2 reporter luciferase activity [3]: completely blocked

O=C(O)c1ccc2c3c1cccc3c(=O)n1c3ccccc3nc21 [STO-609, 7-H-Benz[de]benzimidazo[2,1-a]isoquinoline-7-one-3-carboxylic acid]
effect of inhibitor on UII-dependent phosphorylation of p38 and ERK1/2 (p38 and ERK1/2): UII was unable to stimulate p38 or ERK1/2 | IC50 (p42 MAP kinase): > 31.8 µM | IC50 for PKC (PKC): > 10 µg/mL | IC50 (CaM-KIV): > 31.8 µM | effect of inhibitor on AngII and Et-1 activation of PKD (PKD [4]): CaMKK is required for AngII and Et-1 activation of ERK1/2 and PKD | IC50 (CaM-KI): > 31.8 µM | effect of inhibitor on AngII and Et-1 activation of ERK1/2 (ERK1/2): CaMKK is required for AngII and Et-1 activation of ERK1/2 and PKD | effect of inhibitor on UII-induced association of HDAC5 with 14-3-3β [1]: loss of UII-induced association of HDAC5 with 14-3-3β; also recorded: decreased association of HDAC5 with 14-3-3β | effect of inhibitor on UII activation of ANF, SkA and MEF2 reporter luciferase activity [2]: completely blocked; also recorded: UII was incapable of stimulating any of the reporters | effect of inhibitor on UII-stimulated hypertrophy marker gene mRNA expression (ANF, BNP, αMHC, SkA) [5]: UII was unable to stimulate hypertrophy marker gene expression over control; also recorded: UII was unable to stimulate the expression of ANF, BNP, αMHC or SkA | IC50 for PKA (PKA): > 10 µg/mL | IC50 (CaMKKa): 0.382 µM | effect of inhibitor on UII-dependent phosphorylation of PKD (PKD [6]): UII was unable to stimulate PKD | effect of inhibitor on UII-dependent activation (phosphorylation) of CaMKI (CaMKI): UII was unable to stimulate CaMKI; also recorded: inhibited

C[S+]([O-])c1ccc(-c2nc(-c3ccncc3)c(-c3ccc(F)cc3)[nH]2)cc1 (stereo not drawn) [SB203580]
effect of inhibitor on UII-induced association of HDAC5 with 14-3-3β [1]: no effect | effect of inhibitor on UII activation of ANF, SkA and MEF2 reporter luciferase activity [2]: completely blocked | effect of inhibitor on CaMKI activation of ANF, SkA and MEF2 reporter luciferase activity [3]: completely blocked

angiotensin II (DRVYIHPF; Angiotensin-2; UniProt P01019 25-32, looked up) [AngII, humoral hypertrophic agonist acting on the Gq-coupled angiotensin II receptor]
UIIR mRNA expression (UIIR): up-regulated the UIIR messenger RNA | UIIR protein expression (UIIR): up-regulation of UIIR

CNC[C@H](O)c1cccc(O)c1 [PE, phenylephrine]
UIIR mRNA expression (UIIR): up-regulated the UIIR messenger RNA | UIIR protein expression (UIIR): up-regulation of UIIR
